Measurements published in patent publication US5856166A, “Streptomyces proteases and methods for improved secretion of recombinantly-expressed proteins” (Cangene Corporation, priority 1994, dated 1999).
“Also recorded” adds a separate entry of the source. Where a SMILES comes first, the peptide text is derived from it. The star is where a group is joined. CH2Cl = ClC*

Columns and labels:
[1] = target: T1, Tap (tripeptidyl aminopeptidase) (Streptomyces lividans, UniProt Q54410); assay: Cleavage of GM-CSF by Tap, native gel electrophoresis; type: biochemical, S. lividans 66
T1 construct: An autolytic tripeptide cleavage removing APA after signal peptide removal would yield the N-terminal found for the secreted protease; made in house; host or cells: Streptomyces lividans 66 (wild-type strain, native secreted enzyme purified from the broth)
T1 sequence (Q54410 40-537): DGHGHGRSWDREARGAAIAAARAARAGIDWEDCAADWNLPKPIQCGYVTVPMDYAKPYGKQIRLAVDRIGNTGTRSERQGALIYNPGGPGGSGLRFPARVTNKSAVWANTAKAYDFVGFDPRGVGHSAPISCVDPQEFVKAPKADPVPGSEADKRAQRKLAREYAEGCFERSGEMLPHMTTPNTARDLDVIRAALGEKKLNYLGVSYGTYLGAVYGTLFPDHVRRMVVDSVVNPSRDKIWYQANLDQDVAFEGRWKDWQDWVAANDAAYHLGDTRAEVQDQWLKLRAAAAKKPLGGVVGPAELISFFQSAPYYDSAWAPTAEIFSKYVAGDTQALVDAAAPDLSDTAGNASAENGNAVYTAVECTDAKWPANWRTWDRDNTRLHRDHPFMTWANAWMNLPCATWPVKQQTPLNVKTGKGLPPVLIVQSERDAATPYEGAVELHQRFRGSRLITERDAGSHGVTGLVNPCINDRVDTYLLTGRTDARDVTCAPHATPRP
Method: The assay was performed as described in Example 7. The Tap concentration in the assays was 5 nM. Lane 1=GM-CSF standard; Lane 2=GM-CSF after digestion with Tap in the absence of APACMK; Lanes 3 and 4=150 uM APACMK; Lanes 5 and 6=15 uM APACMK; Lanes 7 and 8=1.5 uM APACMK; Lanes 9 and 10=150 nM APACMK; Lanes 11 and 12=15 nM APACMK; Lanes 13 and 14=1.5 nM APACMK; Lanes 15 and 16=150 pM APACMK.
To 10 ul of rhGM-CSF (10 ug, Cangene) and 20 ul 20 mM Tris-HCl, pH 8.0, 20 ul of Tap were added. The assays were incubated at 37° C. for 2 hrs. 20 ul of 125 mM Tris-HCl, pH 6.8, 0.1% bromophenol blue in 50% aqueous glycerol were added. Products were separated by native gel electrophoresis at constant current on a 17% polyacrylamide gel by a modification of the method of Davies (Davies, 1964) in which the pH of all buffers was modified with H2 SO4. Products were visualized by staining with Coomassie Blue G-250 (see FIG. 1A).
A stock solution of 10 nM Tap in 20 mM Tris-HCl, pH 8.0 was prepared. Serial dilutions of 210 uM, 21 uM, 2.1 uM, 210 nM, 21 nM, and 2.1 nM APACMK (Example 5) were prepared. To 20 ul Tap, 20 ul of an APACMK dilution (or water for an uninhibited enzyme control) were added and incubated at 22° C. for 30 minutes. 10 ul of GM-CSF (1 ug/ul, Cangene) were added and incubated at 37° C. for 2 hours. Products were analyzed by native gel electrophoresis as described in Example 2.

Tap = target: T2, Tap (Streptomyces lividans, UniProt Q54410); assay: Inhibition of Tap by APACMK during fermentation of S. lividans (GM-CSF(-3) formation); type: cell-based, S. lividans 66; settings: 10 uM APACMK added after 25 hours; sampled to 48 hours
T2 construct: 100 ml of media was inoculated in 500 ml baffle-bottom flasks with 100 ul of S. lividans 66 working seed bank material; endogenous in cells; host or cells: Streptomyces lividans 66
T2 sequence (Q54410 40-537): T1 sequence (Q54410 40-537)
Method: When APACMK and GM-CSF were added to the protease-containing broth from S. lividans fermentations, the formation of the GM-CSF(-3) degradation product was inhibited. Lane 1=Standard containing GM-CSF and GM-CSF(-3). Lanes 2-6 show a fermentation in the presence of 10 uM APACMK. Lane 2=25 hours growth; Lane 3=27 hours growth; Lane 4=29 hours growth; Lane 5=31 hours growth; Lane 6=48 hours growth. Lanes 7-11 show a fermentation without APACMK. Lane 7=25 hours growth; Lane 8=27 hours growth; Lane 9=29 hours growth; Lane 10=31 hours growth; Lane 11=48 hours growth. GM-CSF degradation was analyzed by native gel electrophoresis.
(§1) 100 ml of media was inoculated in 500 ml baffle-bottom flasks with 100 ul of S. lividans 66 working seed bank material. The cultures were grown in a New Brunswick gyratory incubator at 32° C. and 240 rpm. The cultures were sampled at 25, 27, 29, 31, and 48 hours post-inoculation and analyzed by native gel electrophoresis (see FIG. 7). Following removal of the 25 hour sample, 100 mM APACMK in sterile water were added to yield a final concentration of 10 uM. A control flask without APACMK was retained.

S. lividans 66 = assay: Cell growth of S. lividans fermentation in the presence of APACMK; type: cell-based; settings: 10 uM APACMK
Method: as §1

[2] = target: T1, Tap (tripeptidyl aminopeptidase); assay: Inactivation of Tap by APACMK assayed with APA-pNA, determination of kinetic constants; type: biochemical, S. lividans 66
Method: The concentration of Tap in the inactivations was 1.0 uM. The inactivation and assay were conducted as described in Example 8. In FIG. 6, (O)=2.70 uM APACMK; (Δ)=2.16 uM APACMK; (.quadrature.)=1.73 uM APACMK; (*)=1.38 uM APACMK; (+)=No APACMK.
The methods employed are described in Examples 6, 7, and 8.
A stock solution of 10 nM Tap in 100mM Tris-HCl, pH 8.0 was prepared. Serial dilutions of 210 uM, 21 uM, 2.1 uM, 210 nM, 21 nM, and 2.1 nM APACMK (Example 5) were prepared. To the microtiter well, 25 ul of Tap followed by 25 ul of an APACMK dilution or distilled water, for an uninhibited control, were added. The assays were incubated for 20 minutes at 22° C. 50 ul 1.6 mM APA-pNA were added to each well. The absorbance was read at 405 nm then incubated at 37° C. The change in absorbance at 405 nm was read after 15 and 60 minutes of incubation.
A stock solution of 1.1 uM Tap in 50 mM Tris-HCl, pH 8.0 was prepared. APACMK stock solutions of 11 uM, 13.8 uM, 17.3 uM, 21.7 uM, 27.0 uM, 54.0 uM, 108 uM, and 1.08 mM were prepared. The Substrate Solution was 50 mM Tris-HCl, pH 8.0, 0.8 mM APA-pNA. The inactivation was performed by placing 90 ul of Tap […] in a 1.5 ml Eppendorf tube on ice and adding 10 ul of water (uninhibited control) or 10 ul of APACMK. A 10 ul aliquot was removed immediately and was assayed by adding it to a cuvette containing 390 ul Substrate Solution at 22° C. The initial velocity was obtained from the change in absorbance at 405 nm during the first 10 seconds of the assay. Additional aliquots were removed at time points and assayed by the same method. At APACMK concentrations greater than 5.0 uM in the incubation, it was not possible to remove an aliquot from the incubation before 90% inactivation occurred.

[3] = target: T1, Tap (tripeptidyl aminopeptidase); assay: Inhibition of TAP in the APA-pNA assay (protease inhibitor survey, Table I); type: biochemical, S. lividans 66
Method: The protease and inhibitor were preincubated for 15 minutes at 22° C. Substrate was added and the mixture was incubated at 37° C. Activity was measured by monitoring the change in absorbance at λ=405 nm.
The assay was conducted in a 96 well microtiter plate. To each well in the assay, 50 ul 100 mM Tris-HCl, pH 8.0, were added followed by 25 ul 3.2 mM APA-pNA. 25 ul of Tap were added to the wells and the absorbance was read at 405 nm. The assays were incubated at 37° C. for 2 hours. The absorbance was read at 405 nm. The activity (release of p-nitroaniline) was calculated from the change in absorbance.

[4] = target: T1, Tap (tripeptidyl aminopeptidase); assay: Cleavage of IL-3 by Tap after PMSF treatment, isoelectric focusing; type: biochemical, S. lividans 66; settings: Tap preincubated with PMSF 30 minutes at 22° C.; incubation up to 4 hours at 37° C.
Method: Lanes 1-4 show the incubation of IL-3 with TAP-S that has been treated with PMSF. Lane 1=4 hrs; Lane 2=2 hours; Lane 3=1 hr.; Lane 4=0 hours. Lanes 5-8 show the incubation of IL-3 with uninhibited Tap. Lane 5=4 hrs.; Lane 6=2 hrs.; Lane 7=1 hrs.; Lane 8=0 hrs. Lane 9 is a human carbonic anhydrase marker, pI=7.4. Lane 10 contains pI markers. […] The enzyme is not affected by sulfhydryl reagents, chelators or aspartyl protease inhibitors (Table I).
To 50 ul 20 mM Tris-HCl, pH 8.0, 40 ul rhIL-3 (2.5 ug/ul, Cangene) was added followed by 10 ul Tap. The assays were incubated at 37° C.. 25 ul aliquots were withdrawn at the desired time points and frozen on crushed dry ice. The products were separated by isoelectric focusing from pH 3-10 using Pharmalyte 3-10 (Pharmacia) ampholytes (FIG. 4). Products were visualized by staining with Coomassie Blue G-250.
Tap stock (Example 1) was diluted 100-fold with 20 mM Tris-HCl, pH 8.0. A fresh solution of 80 mM PMSF was prepared in isopropanol (iPrOH). A Stock Buffer of 20 mM Tris-HCl, pH 8.0 was prepared. Four preincubations were prepared as follows.
These were incubated at 22° C. for 30 minutes. When the preincubation was complete, 40 ul rhIL-3 (2.5 ug/ul, Cangene) were added and incubation was initiated at 37° C.. […] When the sampling process was complete, the products were analyzed by isoelectric focusing from pH 3-10 (Example 2).

[5] = inactivation of Tap, APA-pNA as substrate

Row | SMILES | effect on cleavage of GM-CSF by Tap [1] | formation of GM-CSF(-3) degradation product in S. lividans fermentation (Tap) | cell growth during fermentation (S. lividans 66) | effect on release of p-nitroaniline from APA-pNA by Tap [2] | inhibition at 2.7 µM ([2]; 0.1 h, within 6 minutes at 0° C., inhibitor concentration 2.7 uM, inhibitor/enzyme molar ratio 2.7) [%] | Ki [2, 5] [µM] | kinact [2, 5] [s⁻¹] | effect on cleavage of APA-pNA by Tap ([3]; Tap treated with PMSF) | Residual Activity ([3]; inhibitor 1.6 mM, preincubated 15 minutes at 22° C., substrate APA-pNA, enzyme only = 100) | effect on cleavage of IL-3 by Tap [4]
1 | C[C@H](N)C(=O)N1CCC[C@H]1C(=O)N[C@@H](C)C(=O)CCl [APACMK, L-alanyl-L-prolyl-L-alanine chloromethylketone] (H-Ala-Pro-Ala-CH2Cl) | stopped the cleavage of GM-CSF; also recorded: inactivated Tap at very low concentrations | prevented cleavage of GM-CSF; also recorded: inhibited; also recorded: significantly reduced formation of GM-CSF(-3) | did not significantly retard the rate of cell growth; also recorded: did not inhibit cell growth | stopped the release of p-nitroaniline; also recorded: inactivated Tap at very low concentrations | > 99 | 3.3 | 0.00233 | – | – | –
2 | O=S(=O)(F)Cc1ccccc1 [PMSF, phenylmethanesulfonyl fluoride] | inhibited | – | – | – | – | – | – | inhibited | 7 | inhibited; also recorded: intact IL-3 is clearly detected after 4 hours
